Measured values taken from patent US20250332173A1, “COMPOUNDS AND METHODS FOR MODULATING NUCLEIC ACID SPLICING” (REMIX THERAPEUTICS INC., priority 2021, published 2025).
Read-outs that look alike come from different tables or passages of the source.

Tests used:
[1] = test system: SMN2 mRNA; experiment: RT-qPCR splicing assay, SMN2 canonical junction (CJ) mRNA; assay type: cell-based, human; conditions: Homo sapiens; canonical junction qPCR panel, Table 5; read-out: SMN2 (decrease in CJ mRNA levels, IC50)
In short: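 Cells are plated (A673 allowed 24 h to adhere), dosed with an 11-point 3-fold series topping at 10 uM final, and incubated 24 h at 37 °C. Lysis is followed by cDNA synthesis and qPCR of the CJ transcript, normalized to a housekeeping gene.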

[2] = test system: K562 (human chronic myelogenous leukemia) cells; experiment: Cell Titer Glo 2.0 cell viability assay; assay type: cell-based; conditions: K562 cells, 72 hours, Cell Titer Glo 2.0, read-out: K562 GI50
[3] = test system: Target C; experiment: HiBiT protein abundance assay, Target C HiBiT K562 cell line; assay type: cell-based; conditions: Homo sapiens; HiBiT lytic detection, modified K562 cells, 24 hours, top dose 10 μM; read-out: Effect on protein abundance, Target C (IC50)
In short: (§1)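 Knock-in K562 cells carrying HiBiT-tagged Target C, 10,000 per well, treated 24 h at 37 °C with 10-point threefold dilutions (top 10 μM final, ≤0.25% DMSO). Lytic HiBiT luminescence read; response normalised to unmodified K562 and DMSO controls, four-parameter fit interpolated at 50% for IC50.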

[4] = test system: Target C; experiment: HiBiT protein abundance assay, Target C (Promega Nano-Glo HiBiT Lytic Detection System, knock-in K562 cell line); assay type: cell-based, human; conditions: Homo sapiens, K562, 24 h, HiBiT K562 cell line, 24 hours, top dose 10 μM; read-out: Effect on protein abundance, Target C (IC50 category)
In short: as §1

Row | IC50 [1] [nM] | GI50 ([2]; Homo sapiens, K562, 72 h) [nM] | IC50 [3] [nM] | IC50 [4] [nM] | GI50 [2] [nM] | SMILES
1 | < 100 | 100 to 1000 | 100 to 1000 | – | – | Cc1cn2nc(-c3ccc4c(=O)n(C5CC(C)N[C@H](C)C5)ncc4n3)cc(C)c2n1 (stereo in doubt) [Compound 1536, 2-(2,8-dimethylimidazo[1,2-b]pyridazin-6-yl)-6-[(2S,6R)-2,6-dimethyl-4-piperidyl]pyrido[2,3-d]pyridazin-5-one]
2 | < 100 | 100 to 1000 | – | 100 to 1000 | – | Cc1cn2cc(-c3ncc4c(=O)n([C@H]5CCNC6(CC6)C5)ccc4n3)cc(F)c2n1 [Compound 1458, 6-[(7S)-4-azaspiro[2.5]octan-7-yl]-2-(8-fluoro-2-methyl-imidazo[1,2-a]pyridin-6-yl)pyrido[4,3-d]pyrimidin-5-one]
3 | < 100 | < 100 | – | 100 to 1000 | – | Cc1c(O)c(-c2ncc3c(=O)n([C@H]4CC[C@H](N(C)C)CC4)ccc3n2)cc2cn(C)nc12 [Compound 1459, 6-((1r,4r)-4-(dimethylamino)cyclohexyl)-2-(6-hydroxy-2,7-dimethyl-2H-indazol-5-yl)pyrido[4,3-d]pyrimidin-5(6H)-one]
4 | < 100 | 100 to 1000 | – | 1000 to 10000 | – | Cc1c(O)c(-c2ncc3c(=O)n([C@H]4CC[C@@H](N(C)C)CC4)ccc3n2)cc2cn(C)nc12 [Compound 1460, 6-((1s,4s)-4-(dimethylamino)cyclohexyl)-2-(6-hydroxy-2,7-dimethyl-2H-indazol-5-yl)pyrido[4,3-d]pyrimidin-5(6H)-one]
5 | < 100 | < 100 | – | 100 to 1000 | – | Cc1c(O)c(-c2ncc3c(=O)n([C@H]4CCN[C@H](C)C4)ccc3n2)cc2cn(C)nc12 [Compound 1461, 2-(6-hydroxy-2,7-dimethyl-indazol-5-yl)-6-[(2R,4S)-2-methyl-4-piperidyl]pyrido[4,3-d]pyrimidin-5-one]
6 | < 100 | < 100 | – | 100 to 1000 | – | Cc1c(O)c(-c2ncc3c(=O)n([C@@H]4CCN[C@@H](C)C4)ccc3n2)cc2cn(C)nc12 [Compound 1462, 2-(6-hydroxy-2,7-dimethyl-indazol-5-yl)-6-[(2S,4R)-2-methyl-4-piperidyl]pyrido[4,3-d]pyrimidin-5-one]
7 | < 100 | 100 to 1000 | – | 1000 to 10000 | – | Cc1c(O)c(-c2ccc3c(=O)n([C@@H]4C[C@@H](C)N[C@@H](C)C4)ccc3n2)cc2cn(C)nc12 [Compound 1463, 6-[(2S,6R)-2,6-dimethyl-4-piperidyl]-2-(6-hydroxy-2,7-dimethyl-indazol-5-yl)-1,6-naphthyridin-5-one]
8 | < 100 | < 100 | – | 100 to 1000 | – | Cc1c(O)c(-c2ccc3c(=O)n([C@H]4C[C@@H](C)N[C@@H](C)C4)ccc3n2)cc2cn(C)nc12 [Compound 1464, 6-[(2S,6R)-2,6-dimethyl-4-piperidyl]-2-(6-hydroxy-2,7-dimethyl-indazol-5-yl)-1,6-naphthyridin-5-one]
9 | < 100 | 100 to 1000 | – | 100 to 1000 | – | Cn1cc2cc(-c3ncc4c(=O)n([C@H]5CCNC5)ccc4n3)c(O)c(F)c2n1 [Compound 1465]
10 | < 100 | 100 to 1000 | 100 to 1000 | – | – | Cn1cc2cc(-c3ncc4c(=O)n([C@@H]5CCNC5)ccc4n3)c(O)c(F)c2n1 [Compound 1466]
11 | < 100 | 100 to 1000 | 1000 to 10000 | – | – | Cc1c(O)c(-c2ccc3c(=O)n(C4CCNC4)cc(C)c3n2)cc2cn(C)nc12 (stereo not shown) [Compound 1467]
12 | < 100 | < 100 | 100 to 1000 | – | – | Cn1cc2cc(-c3ncc4c(=O)n(C56CCC(N)(CC5)C6)ccc4n3)c(O)c(F)c2n1 [Compound 1468]
13 | < 100 | 100 to 1000 | 1000 to 10000 | – | – | Cc1cn2cc(-c3ncc4c(=O)n(C56CCC(N)(CC5)C6)ccc4n3)cc(F)c2n1 [Compound 1469, 6-(4-aminonorbornane-1-yl)-2-(8-fluoro-2-methyl-imidazo[1,2-a]pyridin-6-yl)pyrido[4,3-d]pyrimidin-5-one]
14 | < 100 | 100 to 1000 | 1000 to 10000 | – | – | Cn1cc2cc(-c3ncc4c(=O)n(C56CCC(N)(CC5)C6)ccc4n3)c(O)cc2n1 [Compound 1470]
15 | < 100 | 100 to 1000 | 1000 to 10000 | – | – | Cc1c(O)c(-c2ncc3c(=O)n([C@@H]4CC[C@@H](N)C4)ccc3n2)cc2cn(C)nc12 [Compound 1476, 6-[(1R,3R)-3-aminocyclopentyl]-2-(6-hydroxy-2,7-dimethyl-indazol-5-yl)pyrido[4,3-d]pyrimidin-5-one]
16 | < 100 | – | 100 to 1000 | – | < 100 | Cc1c(O)c(-c2ncc3c(=O)n([C@@H]4CC[C@H](N)C4)ccc3n2)cc2cn(C)nc12 [Compound 1477]

Row | IC50 [1] [nM] | GI50 ([2]; Homo sapiens, K562, 72 h) [nM] | IC50 [3] [nM] | IC50 [4] [nM] | GI50 [2] [nM] | SMILES
17 | < 100 | < 100 | 1000 to 10000 | – | – | CNC12CCC(n3ccc4nc(-c5cc6cn(C)nc6c(C)c5O)ncc4c3=O)(CC1)C2 [Compound 1479]
18 | – | 100 to 1000 | 100 to 1000 | – | – | Cc1c(O)c(-c2ncc3c(=O)n([C@H]4CCNC5(CC5)C4)ccc3n2)cc2cn(C)nc12 [Compound 1512]
19 | – | 100 to 1000 | 100 to 1000 | – | – | Cc1c(O)c(-c2nc(C)c3c(=O)n([C@@H]4CCNC5(CC5)C4)ccc3n2)cc2cn(C)nc12 [Compound 1515, (R)-2-(6-hydroxy-2,7-dimethyl-2H-indazol-5-yl)-4-methyl-6-(4-azaspiro[2.5]octan-7-yl)pyrido[4,3-d]pyrimidin-5(6H)-one]
20 | < 100 | 100 to 1000 | < 100 | – | – | COc1cc(-c2ccc3c(=O)n([C@H]4CCN[C@@H](C)C4)ccc3n2)nn2cc(C)nc12 [Compound 1519, 2-(8-methoxy-2-methyl-imidazo[1,2-b]pyridazin-6-yl)-6-[(2S,4S)-2-methyl-4-piperidyl]-1,6-naphthyridin-5-one]
21 | < 100 | 100 to 1000 | 100 to 1000 | – | – | Cc1cn2nc(-c3ccc4c(=O)n([C@@H]5CCN(C)[C@H](C)C5)ncc4n3)cc(C)c2n1 [Compound 1527]
22 | 100 to 1000 | 100 to 1000 | 100 to 1000 | – | – | Cc1cn2nc(-c3ccc4c(=O)n([C@H]5CCN(C)[C@@H](C)C5)ncc4n3)cc(C)c2n1 [Compound 1528, 2-(2,8-dimethylimidazo[1,2-b]pyridazin-6-yl)-6-(1,2-dimethyl-4-piperidyl)pyrido[2,3-d]pyridazin-5-one]
23 | < 100 | 100 to 1000 | < 100 | – | – | CCN1CC[C@@H](n2ncc3nc(-c4cc(C)c5nc(C)cn5n4)ccc3c2=O)CC12CC2 [Compound 1530]
24 | < 100 | 100 to 1000 | 100 to 1000 | – | – | CCN1CC[C@H](n2ncc3nc(-c4cc(C)c5nc(C)cn5n4)ccc3c2=O)CC12CC2 [Compound 1531]
25 | < 100 | 100 to 1000 | 100 to 1000 | – | – | Cc1cn2nc(-c3ccc4c(=O)n([C@H]5CCN(C)C6(CC6)C5)ncc4n3)cc(C)c2n1 [Compound 1533]
26 | < 100 | 100 to 1000 | < 100 | – | – | Cc1cn2nc(-c3ccc4c(=O)n([C@@H]5CCN(C)C6(CC6)C5)ncc4n3)cc(C)c2n1 [Compound 1534]
27 | < 100 | 1000 to 10000 | – | 100 to 1000 | – | Cc1cn2nc(-c3ccc4c(=O)n(C5CCN(CCO)C6(CC6)C5)ncc4n3)cc(C)c2n1 (stereo not shown) [Compound 1541, 2-(2,8-dimethylimidazo[1,2-b]pyridazin-6-yl)-6-[4-(2-hydroxyethyl)-4-azaspiro[2.5]octan-7-yl]pyrido-[2,3-d]pyridazin-5-one]
28 | 100 to 1000 | 1000 to 10000 | 100 to 1000 | – | – | Cc1cn2nc(-c3ccc4c(=O)n(C5CCN(CCF)C6(CC6)C5)ncc4n3)cc(C)c2n1 (stereo not shown) [Compound 1542, 2-(2,8-dimethylimidazo[1,2-b]pyridazin-6-yl)-6-[4-(2-fluoroethyl)-4-azaspiro[2.5]octan-7-1]pyrido[2,3-d]pyridazin-5-one]
29 | < 100 | 100 to 1000 | 100 to 1000 | – | – | Cc1cn2nc(-c3ccc4c(=O)n(C5CCN(CC6CC6)C6(CC6)C5)ncc4n3)cc(C)c2n1 (stereo not shown) [Compound 1543, 6-[4-(cyclopropylmethyl)-4-azaspiro[2.5]octan-7-yl]-2-(2,8-dimethylimidazo[1,2-b]pyridazin-6-yl)pyrido[2,3-d]pyridazin-5-one]
30 | < 100 | 100 to 1000 | < 100 | – | – | Cc1cn2nc(-c3ccc4c(=O)n([C@@H]5CCNC6(CCC6)C5)ncc4n3)cc(C)c2n1 [Compound 1545, 6-[(8R)-5-azaspiro[3.5]nonan-8-yl]-2-(2,8-dimethylimidazo[1,2-b]pyridazin-6-yl)pyrido[2,3-d]pyridazin-5-one]
31 | 100 to 1000 | 1000 to 10000 | 1000 to 10000 | – | – | Cc1cn2nc(-c3ccc4c(=O)n(C5CCNC6(CCC6)C5)ncc4n3)cc(C)c2n1 (stereo not shown) [Compound 1553]
32 | > 10000 | > 10000 | > 10000 | – | – | Cn1cc2ccc(-n3cnc4ccc(NC5CCNCC5)cc4c3=O)cc2n1 [Compound 2164]

Row | SMILES | IC50 [1] [nM] | GI50 ([2]; Homo sapiens, K562, 72 h) [nM] | IC50 [3] [nM] | IC50 [4] [nM] | GI50 [2] [nM]
33 | Cc1c(O)c(-c2ncc3c(=O)n([C@@H]4C[C@H]5COC[C@@H](C4)N5)ccc3n2)cc2cn(C)nc12 [Compound 1471] | < 100 | 100 to 1000 | 100 to 1000 | – | –
